Results as given in patent US11136329B2, “JAK inhibitors” (Vimalan Biosciences, Inc., priority 2019, dated 2021).

How the values were obtained:
Type in all cases: biochemical
[1] = target: JAK3 (Homo sapiens (Human), UniProt P52333); assay: JAK/TYK2 assay (Kinase Glo luminescence), JAK3; settings: 1.5 nM enzyme, 2 uM ATP, 4 uM pEY, 1 hr
Method in brief: (§1)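 Recombinant kinases incubated with compound (10-point 3-fold series, 10000–0.51 nM final) and substrate in 20 mM HEPES, 10 mM MgCl2, 0.01% Tween, 1 mM DTT, pH 7.5, at 25 °C for 1–2 h. Kinase-Glo luminescence, inversely proportional to kinase activity; no-compound wells as positive control.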

[2] = target: JAK2 (Homo sapiens (Human), UniProt O60674); assay: JAK/TYK2 assay (Kinase Glo luminescence), JAK2; settings: 0.8 nM enzyme, 2 uM ATP, 4 uM pEY, 1 hr
Chain of JAK2 (O60674 whole entry, species assumed): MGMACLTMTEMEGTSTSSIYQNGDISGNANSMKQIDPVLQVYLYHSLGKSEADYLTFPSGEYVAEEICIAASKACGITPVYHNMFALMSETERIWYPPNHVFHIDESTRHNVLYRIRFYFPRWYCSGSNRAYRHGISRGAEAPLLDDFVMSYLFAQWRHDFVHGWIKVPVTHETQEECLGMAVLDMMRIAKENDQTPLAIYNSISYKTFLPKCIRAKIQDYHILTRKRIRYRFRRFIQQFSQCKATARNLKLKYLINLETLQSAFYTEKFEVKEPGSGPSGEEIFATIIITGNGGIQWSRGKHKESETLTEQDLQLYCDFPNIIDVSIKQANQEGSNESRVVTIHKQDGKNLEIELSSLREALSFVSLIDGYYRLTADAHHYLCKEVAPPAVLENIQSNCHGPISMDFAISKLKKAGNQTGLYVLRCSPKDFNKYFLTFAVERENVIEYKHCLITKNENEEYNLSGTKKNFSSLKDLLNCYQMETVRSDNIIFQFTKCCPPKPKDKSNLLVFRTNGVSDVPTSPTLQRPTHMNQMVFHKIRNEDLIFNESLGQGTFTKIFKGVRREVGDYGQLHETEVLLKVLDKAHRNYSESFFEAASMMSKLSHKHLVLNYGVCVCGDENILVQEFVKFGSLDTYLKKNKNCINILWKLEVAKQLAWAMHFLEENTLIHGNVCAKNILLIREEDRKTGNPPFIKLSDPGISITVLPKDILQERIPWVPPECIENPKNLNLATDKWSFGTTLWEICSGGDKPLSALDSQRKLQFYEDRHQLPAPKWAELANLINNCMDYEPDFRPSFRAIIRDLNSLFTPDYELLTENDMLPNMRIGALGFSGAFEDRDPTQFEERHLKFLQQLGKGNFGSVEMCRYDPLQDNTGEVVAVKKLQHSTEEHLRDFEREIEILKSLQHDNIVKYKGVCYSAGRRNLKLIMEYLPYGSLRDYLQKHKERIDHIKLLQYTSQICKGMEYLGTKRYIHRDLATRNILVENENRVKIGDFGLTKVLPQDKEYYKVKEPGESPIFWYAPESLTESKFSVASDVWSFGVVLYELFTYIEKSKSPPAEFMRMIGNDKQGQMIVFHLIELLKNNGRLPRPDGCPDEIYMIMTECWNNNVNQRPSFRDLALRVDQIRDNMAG
Method in brief: as §1

[3] = target: TYK2 (Homo sapiens (Human), UniProt P29597); assay: JAK/TYK2 assay (Kinase Glo luminescence), TYK2; settings: 9 nM enzyme, 2 uM ATP, 30 uM IRS-1, 1 hr
Chain of TYK2 (P29597 whole entry, species assumed): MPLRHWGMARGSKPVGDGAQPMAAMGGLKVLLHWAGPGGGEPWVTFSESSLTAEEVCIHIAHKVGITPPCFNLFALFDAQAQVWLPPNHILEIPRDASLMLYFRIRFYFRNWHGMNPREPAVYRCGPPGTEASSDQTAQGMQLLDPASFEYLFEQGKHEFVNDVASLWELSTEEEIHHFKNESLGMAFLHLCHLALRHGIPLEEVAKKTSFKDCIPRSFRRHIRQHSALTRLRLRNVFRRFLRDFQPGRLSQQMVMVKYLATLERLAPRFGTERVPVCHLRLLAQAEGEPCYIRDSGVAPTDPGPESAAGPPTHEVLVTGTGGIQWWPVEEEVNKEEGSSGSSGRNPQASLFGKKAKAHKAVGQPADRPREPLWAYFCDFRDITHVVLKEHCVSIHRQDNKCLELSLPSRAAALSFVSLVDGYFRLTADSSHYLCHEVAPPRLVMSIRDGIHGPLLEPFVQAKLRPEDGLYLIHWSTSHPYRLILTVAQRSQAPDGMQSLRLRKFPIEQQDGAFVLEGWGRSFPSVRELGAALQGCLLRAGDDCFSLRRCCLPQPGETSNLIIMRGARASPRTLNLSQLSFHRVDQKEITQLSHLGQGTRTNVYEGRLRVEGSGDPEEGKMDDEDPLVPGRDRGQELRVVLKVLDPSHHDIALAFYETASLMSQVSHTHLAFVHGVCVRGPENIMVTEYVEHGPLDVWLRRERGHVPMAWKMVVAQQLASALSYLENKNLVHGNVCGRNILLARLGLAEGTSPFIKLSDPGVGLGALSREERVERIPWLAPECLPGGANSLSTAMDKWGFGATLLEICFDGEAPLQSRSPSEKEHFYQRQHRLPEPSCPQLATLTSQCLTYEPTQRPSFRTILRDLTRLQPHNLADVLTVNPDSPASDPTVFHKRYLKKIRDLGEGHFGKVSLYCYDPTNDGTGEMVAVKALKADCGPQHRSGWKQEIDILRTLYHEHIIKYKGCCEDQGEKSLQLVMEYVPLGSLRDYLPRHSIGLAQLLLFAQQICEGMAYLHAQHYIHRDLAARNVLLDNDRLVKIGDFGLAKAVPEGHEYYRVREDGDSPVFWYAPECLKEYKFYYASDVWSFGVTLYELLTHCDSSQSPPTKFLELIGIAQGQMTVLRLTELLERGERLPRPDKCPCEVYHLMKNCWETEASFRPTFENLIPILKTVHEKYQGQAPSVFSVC
Method in brief: as §1

[4] = target: JAK1 (Homo sapiens (Human), UniProt P23458); assay: JAK/TYK2 assay (Kinase Glo luminescence), JAK1; settings: 7.5 nM enzyme, 2 uM ATP, 30 uM IRS-1, 1 hr
Chain of JAK1 (P23458 whole entry, species assumed): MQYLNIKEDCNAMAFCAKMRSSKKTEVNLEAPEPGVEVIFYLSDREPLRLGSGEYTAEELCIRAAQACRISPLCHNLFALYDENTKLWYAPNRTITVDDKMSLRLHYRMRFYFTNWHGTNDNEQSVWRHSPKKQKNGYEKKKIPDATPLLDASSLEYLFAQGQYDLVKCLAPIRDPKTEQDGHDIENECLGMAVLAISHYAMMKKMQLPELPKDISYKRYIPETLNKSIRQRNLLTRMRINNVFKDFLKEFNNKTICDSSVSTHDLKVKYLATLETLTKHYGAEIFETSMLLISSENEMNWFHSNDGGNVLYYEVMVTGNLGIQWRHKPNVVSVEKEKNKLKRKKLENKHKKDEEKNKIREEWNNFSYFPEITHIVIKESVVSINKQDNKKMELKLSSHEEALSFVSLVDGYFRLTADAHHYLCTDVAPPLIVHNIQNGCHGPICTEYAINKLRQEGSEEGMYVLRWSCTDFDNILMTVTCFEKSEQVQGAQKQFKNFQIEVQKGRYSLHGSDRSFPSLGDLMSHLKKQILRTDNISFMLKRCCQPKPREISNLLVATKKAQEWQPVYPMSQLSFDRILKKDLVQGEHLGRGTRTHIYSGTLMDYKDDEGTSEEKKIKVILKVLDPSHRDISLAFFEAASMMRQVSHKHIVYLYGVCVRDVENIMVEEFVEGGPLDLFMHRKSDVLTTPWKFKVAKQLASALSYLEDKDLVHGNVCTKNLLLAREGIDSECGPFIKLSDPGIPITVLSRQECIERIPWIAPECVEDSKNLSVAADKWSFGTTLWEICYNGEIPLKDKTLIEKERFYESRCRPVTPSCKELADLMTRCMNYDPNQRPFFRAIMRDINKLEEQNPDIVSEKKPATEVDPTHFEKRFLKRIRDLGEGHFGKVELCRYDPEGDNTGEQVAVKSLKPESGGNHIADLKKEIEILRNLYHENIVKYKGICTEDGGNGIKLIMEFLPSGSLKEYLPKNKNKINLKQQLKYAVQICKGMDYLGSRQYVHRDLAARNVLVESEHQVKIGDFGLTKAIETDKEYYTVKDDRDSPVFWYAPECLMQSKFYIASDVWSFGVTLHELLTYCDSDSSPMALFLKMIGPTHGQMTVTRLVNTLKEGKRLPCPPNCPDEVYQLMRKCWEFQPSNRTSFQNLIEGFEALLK
Method in brief: as §1

Chain of JAK3 (P52333 whole entry, species assumed): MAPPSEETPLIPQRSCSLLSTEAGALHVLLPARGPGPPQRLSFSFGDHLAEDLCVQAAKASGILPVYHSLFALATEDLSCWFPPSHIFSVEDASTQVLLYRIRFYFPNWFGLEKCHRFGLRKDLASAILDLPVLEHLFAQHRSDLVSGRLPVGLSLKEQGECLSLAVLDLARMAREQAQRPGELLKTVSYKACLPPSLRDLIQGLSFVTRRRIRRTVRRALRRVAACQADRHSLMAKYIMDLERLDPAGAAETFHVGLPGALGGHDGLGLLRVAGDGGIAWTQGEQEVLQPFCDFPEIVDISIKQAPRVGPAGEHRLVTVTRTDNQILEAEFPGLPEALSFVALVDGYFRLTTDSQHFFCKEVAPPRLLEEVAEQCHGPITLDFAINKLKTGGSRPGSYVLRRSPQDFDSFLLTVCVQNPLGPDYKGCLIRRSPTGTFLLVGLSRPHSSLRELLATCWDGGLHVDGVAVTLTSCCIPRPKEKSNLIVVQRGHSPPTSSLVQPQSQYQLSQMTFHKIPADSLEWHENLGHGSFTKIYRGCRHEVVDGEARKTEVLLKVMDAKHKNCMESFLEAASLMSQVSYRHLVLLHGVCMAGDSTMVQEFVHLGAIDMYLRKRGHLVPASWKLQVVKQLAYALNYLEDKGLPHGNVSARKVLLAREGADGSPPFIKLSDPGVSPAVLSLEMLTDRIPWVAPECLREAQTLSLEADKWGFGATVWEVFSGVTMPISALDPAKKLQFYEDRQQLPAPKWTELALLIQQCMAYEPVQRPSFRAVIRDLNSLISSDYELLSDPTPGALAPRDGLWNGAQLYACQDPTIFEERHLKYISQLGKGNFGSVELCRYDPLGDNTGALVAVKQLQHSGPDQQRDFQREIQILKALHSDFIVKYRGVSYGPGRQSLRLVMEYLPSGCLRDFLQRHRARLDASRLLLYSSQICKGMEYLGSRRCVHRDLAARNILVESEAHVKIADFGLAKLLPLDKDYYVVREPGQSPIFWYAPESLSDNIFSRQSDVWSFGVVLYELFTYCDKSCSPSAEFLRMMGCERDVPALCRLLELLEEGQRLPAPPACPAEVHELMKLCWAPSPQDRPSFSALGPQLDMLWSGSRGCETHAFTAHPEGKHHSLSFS

Structure (SMILES)	IC50 [1] [nM]	IC50 [2] [nM]	IC50 [3] [nM]	IC50 [4] [nM]
CCOC(=O)Cn1cc(Nc2ncc3ccn(C[C@@H]4CCC[C@@H](OC)C4)c3n2)cn1 [Compound 131, ethyl 2-(4-((7-(((1R,3R)-3-methoxycyclohexyl)methyl)-7H-pyrrolo[2,3-d]pyrimidin-2-yl)amino)-1H-pyrazol-1-yl)acetate]	< 100	< 100	< 100	100 to 1000
CCOC(=O)CCn1cc(Nc2ncc3ccn(C[C@@H](CC)C(C)C)c3n2)cn1 [Compound 119, ethyl (S)-3-(4-((7-(2-ethyl-3-methylbutyl)-7H-pyrrolo[2,3-d]pyrimidin-2-yl)amino)-1H-pyrazol-1-yl)propanoate]	< 100	< 100	< 100	< 100
O=C(O)Cn1cc(Nc2ncc3ccn(Cc4ccsc4)c3n2)cn1 [Compound 11, 2-(4-((7-(thiophen-3-ylmethyl)-7H-pyrrolo[2,3-d]pyrimidin-2-yl)amino)-1H-pyrazol-1-yl)acetic acid]	< 100	< 100	< 100	100 to 1000
CCC(Cn1ccc2cnc(Nc3cnn(CCC(=O)O)c3)nc21)C(C)C (stereo not drawn) [Compound 31, 3-(4-((7-(2-ethyl-3-methylbutyl)-7H-pyrrolo[2,3-d]pyrimidin-2-yl)amino)-1H-pyrazol-1-yl)propanoic acid]	< 100	< 100	< 100	< 100
CCOC(=O)Cn1cc(Nc2ncc3ccn(CC4CCCCCC4)c3n2)cn1 [Compound 43, ethyl 2-(4-((7-(cycloheptylmethyl)-7H-pyrrolo[2,3-d]pyrimidin-2-yl)amino)-1H-pyrazol-1-yl)acetate]	< 100	< 100	< 100	100 to 1000
CCOC(=O)Cn1cc(Nc2ncc3ccn(CC(C)(C)C)c3n2)cn1 [Compound 20, ethyl 2-(4-((7-neopentyl-7H-pyrrolo[2,3-d]pyrimidin-2-yl)amino)-1H-pyrazol-1-yl)acetate]	< 100	100 to 1000	< 100	100 to 1000
CC[C@H](Cn1ccc2cnc(Nc3cnn(C4CC(C)(C)OC4=O)c3)nc21)C(C)C (stereo partly drawn) [Compound 144, 3-(4-((7-((S)-2-ethyl-3-methylbutyl)-7H-pyrrolo[2,3-d]pyrimidin-2-yl)amino)-1H-pyrazol-1-yl)-5,5-dimethyldihydrofuran-2(3H)-one]	< 100	< 100	< 100	< 100

Next, values leading:

IC50 [1] [nM]	IC50 [2] [nM]	IC50 [3] [nM]	IC50 [4] [nM]	Structure (SMILES)
< 100	< 100	< 100	< 100	CCC(C)OC(=O)Cn1cc(Nc2ncc3ccn(CC(CC)C(C)C)c3n2)cn1 (stereo not drawn) [Compound 107, sec-butyl 2-(4-((7-(2-ethyl-3-methylbutyl)-7H-pyrrolo[2,3-d]pyrimidin-2-yl)amino)-1H-pyrazol-1-yl)acetate]
< 100	< 100	< 100	< 100	CCOC(=O)Cn1cc(Nc2ncc3ccn(C[C@@H](CC)C(C)C)c3n2)cn1 [Compound 135, ethyl (S)-2-(4-((7-(2-ethyl-3-methylbutyl)-7H-pyrrolo[2,3-d]pyrimidin-2-yl)amino)-1H-pyrazol-1-yl)acetate]
< 100	< 100	< 100	< 100	CCOC(=O)Cn1cc(Nc2ncc3ccn(CC4CCCCC4(F)F)c3n2)cn1 (stereo not drawn) [Compound 35, ethyl 2-(4-((7-((2,2-difluorocyclohexyl)methyl)-7H-pyrrolo[2,3-d]pyrimidin-2-yl)amino)-1H-pyrazol-1-yl)acetate]
< 100	< 100	< 100	< 100	CCCCOC(=O)Cn1cc(Nc2ncc3ccn(CC(CC)C(C)C)c3n2)cn1 (stereo not drawn) [Compound 84, butyl 2-(4-((7-(2-ethyl-3-methylbutyl)-7H-pyrrolo[2,3-d]pyrimidin-2-yl)amino)-1H-pyrazol-1-yl)acetate]
< 100	< 100	< 100	< 100	CC[C@H](Cn1ccc2cnc(Nc3cnn([C@H]4CCOC4=O)c3)nc21)C(C)C [Compound 82B, (S)-3-(4-((7-((S)-2-ethyl-3-methylbutyl)-7H-pyrrolo[2,3-d]pyrimidin-2-yl)amino)-1H-pyrazol-1-yl)dihydrofuran-2(3H)-one]
< 100	< 100	< 100	< 100	CCOC(=O)C(C)n1cc(Nc2ncc3ccn(CC(CC)CC)c3n2)cn1 (stereo not drawn) [Compound 28, ethyl 2-(4-((7-(2-ethylbutyl)-7H-pyrrolo[2,3-d]pyrimidin-2-yl)amino)-1H-pyrazol-1-yl)propanoate]
< 100	< 100	< 100	< 100	CCOCCOC(=O)Cn1cc(Nc2ncc3ccn(CC(CC)C(C)C)c3n2)cn1 (stereo not drawn) [Compound 86, 2-ethoxyethyl 2-(4-((7-(2-ethyl-3-methylbutyl)-7H-pyrrolo[2,3-d]pyrimidin-2-yl)amino)-1H-pyrazol-1-yl)acetate]
< 100	< 100	< 100	100 to 1000	CCOC(=O)CCn1cc(Nc2ncc3ccn(Cc4ccsc4)c3n2)cn1 [Compound 16, ethyl 3-(4-((7-(thiophen-3-ylmethyl)-7H-pyrrolo[2,3-d]pyrimidin-2-yl)amino)-1H-pyrazol-1-yl)propanoate]
